Active and inactive are the calls of the source. The rule behind the calls is not given here.
Experiments:
HeLa [1] = assay: Antiproliferative activity against human HeLa cells assessed as growth inhibition at 20 uM viability after 72 hrs by SRB assay relative to control; type: functional; conditions: read-out: GI
human papillomavirus 18 [2] = assay: Down regulation of viral protein E6 in HPV18 infected in human C4-1 cells after 24 hrs by Western blot analysis; type: functional, cell-based; conditions: dose 0.5-10 µM
[3] = biological target: T1, Protein E7 (human papillomavirus 18) (UniProt P06788); assay: Inhibition of viral protein E7 in HPV18 infected in human HeLa cells assessed as reduction in E2F-1 protein […] after 24 hrs by Western blot analysis; type: cell-based; conditions: dose 0.5-10 µM
T1 sequence (whole entry): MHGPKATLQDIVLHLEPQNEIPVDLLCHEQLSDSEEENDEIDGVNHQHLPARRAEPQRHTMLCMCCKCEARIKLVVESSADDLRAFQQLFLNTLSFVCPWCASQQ

[4] = Toxicity in BALB/c nude mouse xenografted with human A375 cells assessed as effect on body weight at 50 mg/kg, ig administered for alternative days; type: organism-based; conditions: in vivo, po
HeLa [5] = assay: Induction of apoptosis in human HeLa cells assessed as late apoptotic cells at 1 uM after 24 hrs by Annexin V FITC/propidium iodide staining based flow cytometric analysis (reference value: 0.41%); type: functional
[6] = biological target: T1, Protein E7 (human papillomavirus 18); assay: Inhibition of viral protein E7 in HPV18 infected in human HeLa cells assessed as reduction in DNMT1 protein […] after 24 hrs by Western blot analysis; type: cell-based; conditions: dose 0.5-10 µM
A-431 = assay: Antitumour activity against human A431 cells xenografted in BALB/c nude mouse assessed as reduction in tumour growth at 50 mg/kg, ig administered for alternative days; type: functional, organism-based
SK-OV-3 = assay: Antitumour activity against human SKOV-3 cells xenografted in BALB/c nude mouse assessed as reduction in tumour growth at 50 mg/kg, ig administered for alternative days; type: functional, organism-based
HeLa [7] = assay: Antiproliferative activity against human HeLa cells assessed as growth inhibition at 1 uM viability after 72 hrs by SRB assay relative to control; type: functional; conditions: read-out: GI
[8] = Antiproliferative activity against human C4-1 cells assessed as reduction in cell viability after 72 hrs by SRB assay; type: functional, cell-based; conditions: C4-1, 72 h
HeLa [9] = assay: Down regulation of viral protein E7 in HPV18 infected in human HeLa cells at 5 uM after 24 hrs in presence of MG132 by Western blot analysis; type: functional, cell-based
HeLa [10] = assay: Antitumour activity against human HeLa cells xenografted in BALB/c nude mouse assessed as reduction in tumour growth at 50 mg/kg, ig administered for alternative days; type: functional, organism-based
A-375 = assay: Antitumour activity against human A375 cells xenografted in BALB/c nude mouse assessed as reduction in tumour growth at 50 mg/kg, ig administered for alternative days; type: functional, organism-based
human papillomavirus 18 [11] = assay: Down regulation of viral protein E6 in HPV18 infected in human HeLa cells after 24 hrs by Western blot analysis; type: functional, cell-based; conditions: dose 0.5-10 µM
SiHa = assay: Antiproliferative activity against human SiHa cells assessed as reduction in cell viability after 72 hrs by SRB assay; type: functional, cell-based
[12] = Toxicity in BALB/c nude mouse xenografted with human HeLa cells assessed as effect on body weight at 50 mg/kg, ig administered for alternative days; type: organism-based; conditions: in vivo, po
[13] = Toxicity in BALB/c nude mouse xenografted with human SKOV-3 cells assessed as effect on body weight at 50 mg/kg, ig administered for alternative days; type: organism-based; conditions: in vivo, po
[14] = biological target: T1, Protein E7 (human papillomavirus 18); assay: Inhibition of viral protein E7 in HPV18 infected in human HeLa cells assessed as reduction in phosphorylation of Rb at S608 residue after 24 hrs by Western blot analysis; type: cell-based; conditions: dose 0.5-10 µM
[15] = Toxicity in BALB/c nude mouse xenografted with human A431 cells assessed as effect on body weight at 50 mg/kg, ig administered for alternative days; type: organism-based; conditions: in vivo, po
human papillomavirus 18 [16] = assay: Down regulation of viral protein E7 in HPV18 infected in human C4-1 cells after 24 hrs by Western blot analysis; type: functional, cell-based; conditions: dose 0.5-10 µM
human papillomavirus 18 [17] = assay: Down regulation of viral protein E7 in HPV18 infected in human HeLa cells after 24 hrs by Western blot analysis; type: functional, cell-based; conditions: dose 0.5-10 µM
HeLa [18] = assay: Induction of apoptosis in human HeLa cells assessed as early apoptotic cells at 1 uM after 24 hrs by Annexin V FITC/propidium iodide staining based flow cytometric analysis (reference value: 0.6%); type: functional
[19] = Toxicity in BALB/c nude mouse xenografted with human MCF7 cells assessed as effect on body weight at 50 mg/kg, ig administered for alternative days; type: organism-based; conditions: in vivo, po
C-33-A = assay: Antiproliferative activity against human C-33-A cells assessed as reduction in cell viability after 72 hrs by SRB assay; type: functional, cell-based
HeLa [20] = assay: Antiproliferative activity against human HeLa cells assessed as reduction in cell viability after 72 hrs by SRB assay; type: functional, cell-based
HEK293 = assay: Cytotoxicity against human HEK293 cells assessed as reduction in cell viability after 72 hrs by SRB assay; type: cell-based; conditions: HEK293, 72 h
HeLa [21] = assay: Induction of apoptosis in human HeLa cells assessed as viable cells at 1 uM after 24 hrs by Annexin V FITC/propidium iodide staining based flow cytometric analysis (reference value: 97.97%); type: functional; conditions: read-out: Activity
HeLa [22] = assay: Induction of apoptosis in human HeLa cells assessed as necrotic cells at 1 uM after 24 hrs by Annexin V FITC/propidium iodide staining based flow cytometric analysis (reference value: 1.02%); type: functional
HeLa [23] = assay: Induction of cell cycle arrest in human HeLa cells assessed as decrease in accumulation in S phase at 1 uM after 24 hrs by RNAse/propidium iodide staining based flow cytometric analysis; type: functional
[24] = biological target: T1, Protein E7 (human papillomavirus 18); assay: Inhibition of viral protein E7 in HPV18 infected in human HeLa cells assessed as reduction in phosphorylation of Rb at S780 residue after 24 hrs by Western blot analysis; type: cell-based; conditions: dose 0.5-10 µM
MCF7 = assay: Antitumour activity against human MCF7 cells xenografted in BALB/c nude mouse assessed as reduction in tumour growth at 50 mg/kg, ig administered for alternative days; type: functional, organism-based

For CN(C)c1ccc(-c2nc3cc(N)ccc3o2)cc1, the inhibition of growth at 20 µM (HeLa [1]) was 8.9%.
COc1cccc2sc(N)nc12 gave an inhibition of growth at 20 µM (HeLa [1]) of 0.6%.
With COc1ccc(-c2nc3ccccc3s2)cc1 the inhibition of growth at 20 µM (HeLa [1]) was 0.1%.
With Nc1ccc2oc(-c3ccc4nc(N)sc4c3)nc2c1 the Activity (human papillomavirus 18 [2]) was “Dose-dependent effect”, the inhibition [3] was “Dose-dependent effect” and the Activity [4] was “Non-Toxic”. For the same compound, the Activity (HeLa [5]) was 3.05%, the inhibition [6] was “Dose-dependent effect” and the Activity (A-431) was “inactive”. For the same compound, the Activity (SK-OV-3) was “inactive”, the inhibition of growth at 1 µM (HeLa [7]) was 81.7% and the IC50 [8] was 0.44 µM. The Activity (HeLa [9]) was “inactive”, the Activity (HeLa [10]) was “Active” and the Activity (A-375) was “inactive”. The Activity (human papillomavirus 18 [11]) was “Dose-dependent effect”, the IC50 (SiHa) was 11.5 µM and the Activity [12] was “Non-Toxic”. For the same compound, the Activity [13] was “Non-Toxic”, the inhibition [14] was “Dose-dependent effect” and the Activity [15] was “Non-Toxic”. For the same compound, the Activity (human papillomavirus 18 [16]) was “Dose-dependent effect”, the Activity (human papillomavirus 18 [17]) was “Dose-dependent effect” and the Activity (HeLa [18]) was 8.77%. For the same compound, the Activity [19] was “Non-Toxic”, the IC50 (C-33-A) was 11.9 µM and the IC50 (HeLa [20]) was 0.38 µM. The IC50 (HEK293) was over 20 µM, the viability at 1 µM (HeLa [21]) was 85.8% and the inhibition of growth at 20 µM (HeLa [1]) was 81.1%. For the same compound, the Activity (HeLa [22]) was 2.33%, the Activity (HeLa [23]) was “Active” and the inhibition [24] was “Dose-dependent effect”. For the same compound, the Activity (MCF7) was “inactive”.
Compound c1ccc(-c2nc3ccccc3[nH]2)nc1 has an inhibition of growth at 20 µM (HeLa [1]) of 2.5%.
With Nc1ccc(Br)cc1-c1nc2ccccc2s1 the inhibition of growth at 20 µM (HeLa [1]) was 0.8%.
For Nc1cc(N)cc(-c2nc3ccccc3[nH]2)c1, the inhibition of growth at 20 µM (HeLa [1]) was 34.5%.
Nc1ccc2sc(N)nc2c1 gave an inhibition of growth at 20 µM (HeLa [1]) of 9.6%.
In the case of Nc1cccc(-c2nc3ccccc3s2)c1, the inhibition of growth at 20 µM (HeLa [1]) is reported as 1.7%.
COc1ccc2nc(N)sc2c1 showed an inhibition of growth at 20 µM (HeLa [1]) of -3.4%.
Compound COc1ccc(-c2nc3cc(N)ccc3o2)cc1 has an inhibition of growth at 20 µM (HeLa [1]) of 42.6%.
N#Cc1ccc(-c2nc3ccccc3s2)cc1 gave an inhibition of growth at 20 µM (HeLa [1]) of 10.8%.
Nc1nc2ccccc2[nH]1 gave an inhibition of growth at 20 µM (HeLa [1]) of 1.1%.
With Nc1ccc2oc(-c3cccc4c(Br)cccc34)nc2c1 the inhibition of growth at 20 µM (HeLa [1]) was 13.8%.
In the case of O=[N+]([O-])c1ccc(-c2nc3cc([N+](=O)[O-])ccc3o2)cc1, the inhibition of growth at 20 µM (HeLa [1]) is reported as 3.8%.
For Nc1ccc2oc(-c3ccc4ncsc4c3)nc2c1, the inhibition of growth at 1 µM (HeLa [7]) was 20.3%, the IC50 (HeLa [20]) was 7.08 µM and the inhibition of growth at 20 µM (HeLa [1]) was 58%.
Work on Nc1ccc(O)c(-n2nc3ccc(N)cc3n2)c1 yielded an inhibition of growth at 20 µM (HeLa [1]) of 7.1%.
For Nc1ccc(-c2nc3ccccc3[nH]2)cc1, the inhibition of growth at 20 µM (HeLa [1]) was 1.9%.
For Nc1ccc2nc(-c3ccccc3)oc2c1, the inhibition of growth at 20 µM (HeLa [1]) was -0.7%.
Work on Clc1ccc(-c2nc3ccccc3s2)c(Cl)c1 yielded an inhibition of growth at 20 µM (HeLa [1]) of 0.3%.
Work on FC(F)(F)c1ccc(-c2nc3ccccc3s2)nn1 yielded an inhibition of growth at 20 µM (HeLa [1]) of 9.7%.
C[S+]([O-])c1ccc2nc(N)sc2c1 (stereo not given) showed an inhibition of growth at 20 µM (HeLa [1]) of 9.1%.
Compound COc1ccc2sc(N)nc2c1 has an inhibition of growth at 20 µM (HeLa [1]) of 12.2%.
With Nc1ccc2oc(-c3cccnc3)nc2c1 the inhibition of growth at 20 µM (HeLa [1]) was 1.3%.
In the case of O=[N+]([O-])c1cccc(-c2nc3ccccc3s2)c1, the inhibition of growth at 20 µM (HeLa [1]) is reported as 4.4%.
Cc1nc2cc(N)ccc2s1 showed an inhibition of growth at 20 µM (HeLa [1]) of 6.1%.
Work on Nc1ccc2oc(-c3cc(I)ccc3Cl)nc2c1 yielded an inhibition of growth at 20 µM (HeLa [1]) of 26.5%.
Work on c1ccc2oc(-c3ccc4ncsc4c3)nc2c1 yielded an inhibition of growth at 1 µM (HeLa [7]) of 17.6%, an IC50 (HeLa [20]) of 6 µM and an inhibition of growth at 20 µM (HeLa [1]) of 49.2%.
In the case of Sc1nc2ccccc2s1 [2-MERCAPTOBENZOTHIAZOLE], the inhibition of growth at 20 µM (HeLa [1]) is reported as 7.9%.
Compound Nc1ccc2oc(-c3cc(Cl)ccc3Cl)nc2c1 has an inhibition of growth at 20 µM (HeLa [1]) of -0.2%.
Work on C[n+]1ccccc1-c1nc2ccccc2s1 yielded an inhibition of growth at 20 µM (HeLa [1]) of 1.2%.

— ChEMBL document CHEMBL4765411, “Discovery of 2-(2-aminobenzo[d]thiazol-6-yl) benzo[d]oxazol-5-amine derivatives that regulated HPV relevant cellular pathway and prevented cervical cancer from abnormal proliferation” (Eur J Med Chem, 2020)
